Measurements taken from PubChem BioAssay (NCI).
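Five concentrations, 48 hours, 96-well plates. Abbreviation: GI50, concentration required for 50% inhibition of growth. TGI denotes the concentration required for complete inhibition of growth.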 Where a SMILES comes first, the peptide text is derived from it. [ ]: non-standard residue; d: D form.

Tests used:
Assay in all cases: inhibition of tumour cell growth, NCI panel, 48 h
UACC-62 melanoma = system: UACC-62 melanoma
NCI-H23 lung = system: NCI-H23 lung
K-562 leukemia = system: K-562 leukemia
TK-10 renal = system: TK-10 renal
MDA-MB-435 = system: MDA-MB-435
786-0 renal = system: 786-0 renal
MOLT-4 leukemia = system: MOLT-4 leukemia
EKVX NSCLC = system: EKVX NSCLC
IGROV1 ovarian = system: IGROV1 ovarian
NCI/ADR-RES ovarian = system: NCI/ADR-RES ovarian

Row | Structure (SMILES) | GI50 (UACC-62 melanoma) | TGI (UACC-62 melanoma) | GI50 (NCI-H23 lung) | TGI (NCI-H23 lung) | GI50 (K-562 leukemia) | TGI (K-562 leukemia) | GI50 (TK-10 renal) | TGI (TK-10 renal) | GI50 (MDA-MB-435) | TGI (MDA-MB-435) | GI50 (786-0 renal) | TGI (786-0 renal) | GI50 (MOLT-4 leukemia) | TGI (MOLT-4 leukemia) | GI50 (EKVX NSCLC) | TGI (EKVX NSCLC) | GI50 (IGROV1 ovarian) | TGI (IGROV1 ovarian) | GI50 (NCI/ADR-RES ovarian) | TGI (NCI/ADR-RES ovarian)
1 | COc1cc2c(=O)n(CC3CCCCC3)c3c4cc[nH]c4ncc3c2cc1OC | 6.01 µM | > 50 µM | 6.66 µM | > 50 µM | 0.187 µM | 15.8 µM | 4.66 µM | 18.9 µM | 4.15 µM | > 50 µM | 1.31 µM | 9.25 µM | 5.64 µM | > 50 µM | 5.52 µM | > 50 µM | 0.891 µM | 13.8 µM | 3.74 µM | 34.5 µM
2 | C=C(CN1CCN(c2ccc(F)c(Cl)c2)CC1)c1ccc(C(=O)Nc2ccccc2N)cc1 | 5.24 µM | 54.3 µM | 5.27 µM | 29.7 µM | 2.41 µM | 14.2 µM | 18.2 µM | 97.5 µM | 3.2 µM | 12.6 µM | 2.88 µM | 13.4 µM | 0.764 µM | 4 µM | 15.8 µM | > 100 µM | 1.88 µM | 7.86 µM | 2.01 µM | 5.09 µM
3 | CCCCCCCCc1cc(O)ccc1O | 13.6 µM | 26.6 µM | 17.3 µM | 42 µM | 14.9 µM | 67.5 µM | 1.46 µM | 22.7 µM | 19.5 µM | 49.7 µM | 17.5 µM | 34.5 µM | 17.3 µM | 72.8 µM | 18.1 µM | 61.1 µM | 17.7 µM | 43.8 µM | 19.3 µM | 56.2 µM
4 | COc1ccc(F)cc1-c1ccnc2[nH]c(C3=CCN(C4CCC(CC(=O)O)CC4)CC3)cc12 (stereo not given) | 0.113 µM | 0.371 µM | 0.185 µM | 2.53 µM | 0.316 µM | > 100 µM | 0.344 µM | > 100 µM | 0.221 µM | 1.05 µM | 0.219 µM | 37.3 µM | 0.218 µM | > 100 µM | 0.289 µM | 40.9 µM | 0.168 µM | > 100 µM | 2.15 µM | > 100 µM
5 | N=C1C=C(N)C(=O)c2ccccc21 | 0.181 µM | 0.352 µM | 0.219 µM | 0.61 µM | 0.231 µM | 0.556 µM | 0.599 µM | 1.7 µM | 0.163 µM | 0.31 µM | 0.202 µM | 0.406 µM | 0.215 µM | 0.558 µM | 0.202 µM | 0.421 µM | 0.203 µM | 0.42 µM | 0.296 µM | 1.01 µM
6 | O=C1CC2OCC=C3CN4CCC5(C(=O)O)C(N1)C2C3CC45 (stereo not given) | – | > 100 µM | – | > 100 µM | – | > 100 µM | – | > 100 µM | – | > 100 µM | – | > 100 µM | – | > 100 µM | – | > 100 µM | – | > 100 µM | – | > 100 µM
7 | CSCC[C@H](NC(=O)[C@@H](N)CC(N)=O)C(=O)N[C@@H](Cc1c[nH]c2ccccc12)C(=O)N[C@@H](CCC(N)=O)C(=O)N[C@@H](CCC(=O)O)C(=O)N[C@H](C(=O)NCC(=O)N[C@@H](CCCCN)C(=O)N[C@H](C)C(=O)O)C(C)C (H-NMWQEVGK[dA]-OH) | – | > 100 µM | – | > 100 µM | – | > 100 µM | – | > 100 µM | – | > 100 µM | – | > 100 µM | – | > 100 µM | – | > 100 µM | – | > 100 µM | – | > 100 µM
